Laboratory results reported in US20240011038A1, “CYTARABINE-MODIFIED miRNA FOR TREATING CANCER” (Curamir Therapeutics, Inc., priority 2022, published 2024).

Key:
Assay type in all cases: cell-based
[1] = system: MV-4-11 acute myeloid leukemia cells; experiment: Cell viability of MV-4-11 AML cells exposed to modified miRNA mimics (WST-1); details: MV-4-11 cells, vehicle-free transfection, dosage of 5 nM, 6 days; FIG. 3
Description: (§1) MV-4-11 (American Type Culture Collection; “ATCC”) AML cells were maintained in Iscove's Modified Dulbecco's Medium (IMDM) (Thermo Fisher Scientific) supplemented with 10% fetal bovine serum (“FBS”; VWR). REH ALL cells (ATCC) were maintained in RPMI-1640 Medium (Thermo Fisher Scientific) supplemented with 10% FBS.
(§2) For transfection with a vehicle, twenty-four hours before transfection, cells were plated in 6 well plates at 1×10^5 cells per well. Cells were transfected with negative control miRNA (Thermo Fisher Scientific), 5-FU miR-15a, or various versions of the ara-C modified miR-15a mimic, using Lipofectamine™ 2000 (Thermo Fisher Scientific) as directed by the manufacturer. MV-4-11 cells were transfected with 15 nM of miRNA and REH cells were transfected with 25 nM of miRNA. Twenty-four hours post-transfection, cells were replated at 2000 cells per well in 96 well plates. […]
(§3) Cell numbers were measured on days 1, 3, and 6 post transfection for cells transfected with Lipofectamine 2000 and on day 6 post transfection for vehicle free transfection, using WST-1 dye (Roche). Briefly, cells were incubated with 10 μl of WST-1 dye per 100 μl of media for 1 hour (REH) or 2 hours (MV-4-11) at 37° C. and absorbance was read at 450 nm and 630 nm. The optical density (“OD”) was calculated by subtracting the absorbance at 630 nm from that at 450 nm. […]

Wee1 gene mRNA = experiment: Inhibition of Wee1 expression by modified miR-15a (qRT-PCR); details: MV-4-11 cells, lipofection, 15 nM miRNA, 24 h post-transfection, normalized to GAPDH, vs negative control miRNA; FIG. 7
Description: Wee1 is an important cell cycle regulator and a potential target for AML therapy. Wee1 is a direct target of miR-15a with two miR-15a binding sites in the 3′ UTR of Wee1.
For transfection with a vehicle, twenty-four hours before transfection, cells were plated in 6 well plates at 1×10^5 cells per well. Cells were transfected with negative control miRNA (Thermo Fisher Scientific), 5-FU miR-15a, or various versions of the ara-C modified miR-15a mimic, using Lipofectamine™ 2000 (Thermo Fisher Scientific) as directed by the manufacturer. MV-4-11 cells were transfected with 15 nM of miRNA. Twenty-four hours post-transfection, RNA was isolated from cells using TRIzol™ (Thermo Fisher Scientific) reagent following the manufacturer's protocol. Wee1 expression was measured using qRT-PCR and normalized to GAPDH expression and calculated by the double delta threshold cycle (ΔΔCt) method.

[2] = system: REH acute lymphocytic leukemia cells; experiment: Cell viability of REH ALL cells exposed to modified miRNA mimics (WST-1); details: vehicle-free transfection, 10, 5, 0.5 nM miRNA, day 6, FIG. 5
Description: as §1, §2, §3

Substance: 5-FU miR-15a: miR-15a mimic with 5-fluorouracil in the guide strand, unmodified passenger strand (FIG. 1F; SEQ ID NO: 1/2) (guide UAGCAGCACAUAAUGGUUUGUG; sense CAGGCCAUAUUGUGCUGCCUCA; 5-fluorouracil in guide strand; misc_feature 1..22 miR-15a guide strand; modified_base 1 OTHER; uracil or 5-fluorouracil; misc_feature 4 cytidine or cytosine arabinoside; misc_feature 7 cytidine or cytosine arabinoside; modified_base 11 OTHER; modified_base 14 OTHER; modified_base 17..19 OTHER; modified_base 21 OTHER; misc_fea; misc_feature 1..22 miR-15a passenger strand; misc_feature 1 cytidine or cytosine arabinoside; misc_feature 5..6 cytidine or cytosine arabinoside; misc_feature 15 cytidine or cytosine arabinoside;)
- cell killing [1]: killed all cells in 6 days
- Wee1 gene mRNA expression (relative quantity, qRT-PCR) (Wee1 gene mRNA): able to significantly suppress Wee1 gene mRNA expression
- inhibition of cell viability (percent cell viability) [2]: more effective than ara-C miR-15a
